Results reported in US7977349B2, “Substituted quinolones III” (Aicuris GmbH & Co. KG, priority 2006, dated 2011).

Experiments:
[1] = Cytostatic effects on NHDF cells in the anti-HCMV cytopathogenicity test; type: cell-based, human; conditions: human, concentration at which no visible cytostatic effects on NHDF cells are evident vs untreated cell control
Description: (§1) Anti-HCMV (Anti-Human Cytomegalovirus) Cytopathogenicity Tests The test compounds are employed as 50 millimolar (mM) solutions in dimethyl sulfoxide (DMSO). Ganciclovir®, Foscarnet® and Cidofovir® are used as reference compounds. After the addition of 2 μl of the 50, 5, 0.5 and 0.05 mM DMSO stock solutions respectively to 98 μl portions of cell culture medium in row […] for duplicate determinations, 1:2 dilutions are carried out with 50 μl portions of medium up to row 11 of the 96-well plate. The wells in rows 1 and 12 each contain 50 μl of medium. 150 μl of a suspension of 1×10^4 cells (human prepuce fibroblasts [NHDF]) are then pipetted into each of the wells (row 1=cell control) and, in rows 2-12, a mixture of HCMV-infected and uninfected NHDF cells (M.O.I.=0.001-0.002), i.e. 1-2 infected cells per 1000 uninfected cells. Row 12 (without substance) serves as virus control. The final test concentrations are 250-0.0005 μM. The plates are incubated at 37° C./5% CO2 for 6 days, i.e. until all the cells in the virus controls are infected (100% cytopathogenic effect [CPE]). The wells are then fixed and stained by adding a mixture of formalin and Giemsa's dye (30 minutes), washed with double-distilled water and dried in a drying oven at 50° C. The plates are then assessed visually using an overhead microscope (plaque multiplier from Technomara). The following data can be obtained from the test plates: CC50 (NHDF)=substance concentration in μM at which no visible cytostatic effects on the cells are evident compared with the untreated cell control;

HCMV = assay: Anti-HCMV (anti-human cytomegalovirus) cytopathogenicity test; type: cell-based; conditions: Human betaherpesvirus 5, NHDF, 144 h, concentration inhibiting the CPE by 50% vs untreated virus control; HCMV-infected NHDF cells, 6 days, visual assessment
Description: as §1, with “plates: EC50 (HCMV)=substance” for “plates: CC50 (NHDF)=substance”, “μM” for “μM at”, “which inhibits” for “which no visible cytostatic effects on”, “the CPE (cytopathic effect) by 50%” for “the cells are evident”, “untreated virus” for “untreated cell”

| EC50 (HCMV) | Compound | CC50 at 6 days [1] |
| --- | --- | --- |
| 0.006 µM | COc1c(N2CCC(C(=O)O)CC2)c(F)cc2c(=O)c(C(=O)NCc3ccc(OC(F)(F)F)cc3C)cn(CCF)c12 [Example 49, 1-[6-Fluoro-1-(2-fluoroethyl)-8-methoxy-3-({[2-methyl-4-(trifluoromethoxy)benzyl]amino}carbonyl)-4-oxo-1,4-dihydroquinolin-7-yl]piperidine-4-carboxylic acid] | 94 µM |
| 0.026 µM | COc1c(N2CCCC(CC(=O)O)C2)c(F)cc2c(=O)c(C(=O)NCc3ccc(Cl)cc3Cl)cn(CC(F)(F)F)c12 (centres unmarked) [Example 51, [3-{[(2,4-Dichlorobenzyl)amino]carbonyl}-6-fluoro-8-methoxy-4-oxo-1-(2,2,2-trifluoroethyl)-1,4-dihydroquinolin-7-yl]piperidin-3-ylacetic acid] | 47 µM |
| 0.017 µM | COc1c(N2CCC3(CC2)CNC(=O)C3)c(F)cc2c(=O)c(C(=O)NCc3ccc(OC(F)(F)F)cc3C)cn(CC(F)(F)F)c12 [Example 33, 6-Fluoro-8-methoxy-N-[2-methyl-4-(trifluoromethoxy)benzyl]-4-oxo-7-(3-oxo-2,8-diazaspiro[4.5]dec-8-yl)-1-(2,2,2-trifluoroethyl)-1,4-dihydroquinoline-3-carboxamide] | 19 µM |
| 0.019 µM | CCOC(=O)C1CCN(c2c(F)cc3c(=O)c(C(=O)NCc4ccc(Cl)cc4Cl)cn([C@H]4C[C@H]4F)c3c2OC)CC1 [Example 13] | 23 µM |
| 0.014 µM | COc1c(N2CCC(C(N)=O)CC2)c(F)cc2c(=O)c(C(=O)NCc3ccc(Cl)cc3C)cn(CC(F)(F)F)c12 [Example 28] | 21 µM |
| 0.079 µM | COc1c(N2CCC(C(=O)O)CC2)c(F)cc2c(=O)c(C(=O)NCc3ccc(OC(F)(F)F)cc3C)cn(C(C)CF)c12 (centres unmarked) [Example 65] | 106 µM |
| 0.014 µM | COc1c(N2CCC3(CC2)CNC(=O)C3)c(F)cc2c(=O)c(C(=O)NCc3ccc(OC(F)(F)F)cc3Cl)cn(CC(F)(F)F)c12 [Example 36] | 21 µM |
| 0.008 µM | COc1c(N2CCC(C(=O)O)CC2)c(F)cc2c(=O)c(C(=O)NCc3ccc(OC(F)(F)F)cc3C)cn([C@@H]3C[C@@H]3F)c12 [Example 63] | 47 µM |
| 0.009 µM | CCOC(=O)C1CCN(c2c(F)cc3c(=O)c(C(=O)NCc4ccc(Cl)cc4Cl)cn(CC(F)(F)F)c3c2OC)CC1 [Example 1, Ethyl 1-[3-{[(2,4-dichlorobenzyl)amino]carbonyl}-6-fluoro-8-methoxy-4-oxo-1-(2,2,2-trifluoroethyl)-1,4-dihydroquinolin-7-yl]piperidine-4-carboxylate] | 94 µM |
| 0.034 µM | COc1c(N2CCC(C(N)=O)CC2)c(F)cc2c(=O)c(C(=O)NCc3ccc(C(F)(F)F)cc3C)cn(CC(F)(F)F)c12 [Example 30] | 11 µM |
| 0.061 µM | COc1c(N2CCC(CC(=O)O)CC2)c(F)cc2c(=O)c(C(=O)NCc3ccc(Cl)cc3C)cn(C3CC3)c12 [Example 67] | 21 µM |
| 0.022 µM | COc1c(N2CCC(C(=O)O)CC2)c(F)cc2c(=O)c(C(=O)NCc3ccc(C(F)(F)F)cc3C)cn(CC(F)(F)F)c12 [Example 54] | 21 µM |
| 0.001 µM | COc1c(N2CCC(C(=O)O)CC2)c(F)cc2c(=O)c(C(=O)NCc3ccc(OC(F)(F)F)cc3C)cn(CC(F)F)c12 [Example 62] | 148 µM |
| 0.007 µM | COc1c(N2CCC(C(=O)O)CC2)c(F)cc2c(=O)c(C(=O)NCc3ccc(OC(F)(F)F)cc3C)cn(C3CCC3)c12 [Example 61] | 21 µM |
| 0.026 µM | COc1c(N2CCC(C(=O)O)CC2)c(F)cc2c(=O)c(C(=O)NCc3c(C)cc(Cl)cc3Cl)cn(CC(F)(F)F)c12 [Example 57] | 23 µM |
| 0.002 µM | CCOc1c(N2CCC(C(=O)O)CC2)c(F)cc2c(=O)c(C(=O)NCc3ccc(OC(F)(F)F)cc3C)cn(CC(F)(F)F)c12 [Example 79, 1-[8-Ethoxy-6-fluoro-3-({[2-methyl-4-(trifluoromethoxy)benzyl]amino}carbonyl)-4-oxo-1-(2,2,2-trifluoroethyl)-1,4-dihydroquinolin-7-yl]piperidine-4-carboxylic acid] | 125 µM |
| 0.008 µM | COc1c(N2CCC(C(N)=O)CC2)c(F)cc2c(=O)c(C(=O)NCc3ccc(OC(F)(F)F)cc3C)cn(CC(F)(F)F)c12 [Example 31, 1-[6-Fluoro-8-methoxy-3-({[2-methyl-4-(trifluoromethoxy)benzyl]amino}carbonyl)-4-oxo-1-(2,2,2-trifluoroethyl)-1,4-dihydroquinolin-7-yl]piperidine-4-carboxamide] | 16 µM |
| 0.006 µM | COc1c(N2CCC(C(=O)O)CC2)c(F)cc2c(=O)c(C(=O)NCc3ccc(Cl)cc3C)cn(CC(F)(F)F)c12 [Example 58] | 47 µM |
| 0.013 µM | COc1c(N2CCC(C(N)=O)CC2)c(F)cc2c(=O)c(C(=O)NCc3ccc(Cl)cc3Cl)cn(CC(F)(F)F)c12 [Example 27] | 21 µM |
| 0.005 µM | COc1c(N2CCC(CC(=O)O)CC2)c(F)cc2c(=O)c(C(=O)NCc3ccc(OC(F)(F)F)cc3C)cn(CC(F)(F)F)c12 [Example 53, [6-Fluoro-8-methoxy-3-({[2-methyl-4-(trifluoromethoxy)benzyl]amino}carbonyl)-4-oxo-1-(2,2,2-trifluoroethyl)-1,4-dihydroquinolin-7-yl]piperidin-4-ylacetic acid] | 94 µM |
| 0.003 µM | COc1c(N2CCC(C(=O)O)CC2)c(F)cc2c(=O)c(C(=O)NCc3ccc(OC(F)(F)F)cc3Cl)cn(CC(F)(F)F)c12 [Example 48, 1-[3-({[2-Chloro-4-(trifluoromethoxy)benzyl]amino}carbonyl)-6-fluoro-8-methoxy-4-oxo-1-(2,2,2-trifluoroethyl)-1,4-dihydroquinolin-7-yl]piperidine-4-carboxylic acid] | 20 µM |
| 0.004 µM | COc1c(N2CCC(C(=O)O)CC2)c(F)cc2c(=O)c(C(=O)NCc3ccc(OC(F)(F)F)cc3C)cn(CC(F)(F)F)c12 [Example 47, 1-[6-Fluoro-8-methoxy-3-({[2-methyl-4-(trifluoromethoxy)benzyl]amino}carbonyl)-4-oxo-1-(2,2,2-trifluoroethyl)-1,4-dihydroquinolin-7-yl]piperidine-4-carboxylic acid] | 86 µM |
| 0.018 µM | CCOC(=O)C1CCN(c2c(F)cc3c(=O)c(C(=O)NCc4ccc(Cl)cc4C)cn(CC(F)(F)F)c3c2OC)CC1 [Example 7] | 94 µM |
| 0.006 µM | Cc1cc(OC(F)(F)F)ccc1CNC(=O)c1cn(CC(F)(F)F)c2c(O)c(N3CCC(C(=O)O)CC3)c(F)cc2c1=O [Example 77, 1-[6-Fluoro-8-hydroxy-3-({[2-methyl-4-(trifluoromethoxy)benzyl]amino}carbonyl)-4-oxo-1-(2,2,2-trifluoroethyl)-1,4-dihydroquinolin-7-yl]piperidine-4-carboxylic acid] | 250 µM |
| 0.012 µM | COc1c(N2CCC(C(=O)O)CC2)c(F)cc2c(=O)c(C(=O)NCc3ccc(Cl)cc3Cl)cn(CC(F)(F)F)c12 [Example 50, 1-[3-{[(2,4-Dichlorobenzyl)amino]carbonyl}-6-fluoro-8-methoxy-4-oxo-1-(2,2,2-trifluoroethyl)-1,4-dihydroquinolin-7-yl]piperidine-4-carboxylic acid] | 47 µM |
